Source: the supplement of paper PMC5579334

How the values were obtained:
[1] = system: HS-PSS; assay: relative IC50 (inflection point of fitted dose-response curve, CellTox-Green cytotoxicity, 72 h; top asymptote may be below 50%); higher = less potent
Method in brief: (§1)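 MPNST cell lines and primary human Schwann cells were incubated 72 h at 37 °C in 384-well plates holding five 10-fold compound dilutions. CellTox-Green was added before seeding at a final 1:1000 dilution and reported fluorescence from DNA released by disrupted cells. Signals were scaled to vehicle and positive-control wells, and cultures failing plate quality control were dropped. Drug sensitivity score and relative IC50 come from four-parameter logistic fits, with IC50 censored at the top concentration.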

[2] = system: HSC1; assay: as above
Method in brief: as §1

[3] = system: HSC2; assay: as above
Method in brief: as §1

[4] = system: ST8814; assay: as above
Method in brief: as §1

[5] = system: STS26T; assay: as above
Method in brief: as §1

[6] = system: HS-PSS; assay: relative IC50 (inflection point of fitted dose-response curve, CellTiter-Glo viability, 72 h; top asymptote may be below 50% inhibition); higher = less potent
Method in brief: (§2)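 Viability was scored by CellTiter-Glo ATP luminescence, scaled from vehicle to positive-control wells, with duplicates averaged where present. The cells, MPNST lines and primary human Schwann cells at 750–1000 per well, sat 72 h at 37 °C, 5% CO2, in 384-well plates preprinted with each compound at five concentrations in 10-fold steps. Four-parameter logistic fits were run on the data. These fits give drug sensitivity score and relative IC50 censored at the top concentration, and percent inhibition is reported at the top concentration.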

[7] = system: HS-Sch-2; assay: as above
Method in brief: as §2

[8] = system: HSC1; assay: as above
Method in brief: as §2

[9] = system: HSC2; assay: as above
Method in brief: as §2

[10] = system: S1507-2; assay: as above
Method in brief: as §2

[11] = system: S462; assay: as above
Method in brief: as §2

[12] = system: ST8814; assay: as above
Method in brief: as §2

[13] = system: YST-1; assay: as above
Method in brief: as §2

[14] = system: STS26T; assay: as above
Method in brief: as §2

Row | Structure (SMILES) | relative IC50 [1] [µM] | relative IC50 [2] [µM] | relative IC50 [3] [µM] | relative IC50 [4] [µM] | relative IC50 [5] [µM] | relative IC50 [6] [µM] | relative IC50 [7] [µM] | relative IC50 [8] [µM] | relative IC50 [9] [µM] | relative IC50 [10] [µM] | relative IC50 [11] [µM] | relative IC50 [12] [µM] | relative IC50 [13] [µM] | relative IC50 [14] [µM]
1 | CC(C)(C)NC(=O)[C@H]1CC[C@H]2[C@@H]3CC[C@H]4NC(=O)C=C[C@]4(C)[C@H]3CC[C@]12C [Finasteride] | > 10 | > 10 | > 10 | > 10 | > 10 | > 10 | > 10 | > 10 | > 10 | > 10 | > 10 | > 10 | > 10 | –
2 | CN(c1ccccc1CNc1nc(Nc2ccc3c(c2)CC(=O)N3)ncc1C(F)(F)F)S(C)(=O)=O | – | – | – | – | 0.849 | 2.36 | 2.44 | 0.209 | 0.326 | 1.25 | 1.01 | 1.37 | 1.24 | 1.42
3 | Oc1nc(-c2ccc(C(F)(F)F)cc2)nc2c1CSCC2 [XAV-939] | > 10 | > 10 | > 10 | > 10 | – | – | > 10 | 0.286 | 0.314 | 1.58 | > 10 | > 10 | – | –
4 | c1cc(CN2CCCNCCNCCCNCC2)ccc1CN1CCCNCCNCCCNCC1 [Plerixafor aq] | – | > 10 | 2.81 | > 10 | – | – | – | > 10 | > 10 | > 10 | > 10 | > 10 | – | > 10
5 | CCn1c(-c2nonc2N)nc2cnc(Oc3cccc(NC(=O)c4ccc(OCCN5CCOCC5)cc4)c3)cc21 | > 10 | 2.52 | – | > 10 | 0.322 | 1.61 | 0.988 | 0.064 | 0.0514 | 1.48 | 1.49 | 1.93 | 0.618 | 0.775
6 | O=C(O)CC[C@H]1CC[C@@](c2cc(F)ccc2F)(S(=O)(=O)c2ccc(Cl)cc2)CC1 [MK-0752] | > 1 | > 1 | > 1 | > 1 | > 1 | > 1 | – | – | – | > 1 | > 1 | > 1 | > 1 | > 1
7 | N#CCNC(=O)c1ccc(-c2ccnc(Nc3ccc(N4CCOCC4)cc3)n2)cc1 [Momelotinib] | > 10 | 3.37 | 3.22 | > 10 | – | 2.5 | 1.64 | 1.41 | 1.33 | 3.76 | 2.74 | 1.97 | 1.3 | 3.11
8 | NC(=O)c1ccc(I)c([N+](=O)[O-])c1 [Iniparib] | > 10 | > 10 | > 10 | > 10 | – | > 10 | > 10 | > 10 | > 10 | > 10 | > 10 | > 10 | > 10 | > 10
9 | CN(N=O)C(=O)N[C@@H]1[C@@H](O)[C@H](O)[C@@H](CO)O[C@@H]1O [Streptozocin] | > 10 | > 10 | > 10 | > 10 | > 10 | – | – | > 10 | > 10 | > 10 | > 10 | – | – | > 10
10 | CN1CCc2c(c3ccccc3n2Cc2ccc(C(=O)NO)cc2)C1 [Tubastatin A] | > 10 | > 10 | > 10 | > 10 | 2.76 | 3.01 | 3.37 | 3.18 | – | 2.43 | 3.27 | 3.47 | 1.6 | 2.84
11 | O=C(O)c1ccc(-c2c[nH]c3ncc(-c4ccccc4)cc23)cc1C1CCCC1 | > 10 | > 10 | > 10 | > 10 | > 10 | – | 2.98 | > 10 | – | > 10 | > 10 | > 10 | > 10 | > 10
12 | O=S(=O)(c1cccc2cnccc12)N1CCCNCC1 [Fasudil] | – | > 50 | > 50 | > 50 | 20.2 | 19.8 | 16.7 | 13 | 16.6 | 19.7 | 16.1 | – | 16.5 | 17.6
13 | Cn1cc(C[C@@H](N)C(=O)O)c2ccccc21 [1-methyl-D-tryptophan aq] | – | > 5 | > 5 | > 5 | – | – | – | > 5 | > 5 | > 5 | > 5 | > 5 | – | > 5
14 | C[C@]1(O)C[C@@H](c2nc(-c3ccc4ccc(-c5ccccc5)nc4c3)c3c(N)nccn32)C1 [Linsitinib] | > 10 | > 10 | > 10 | > 10 | > 10 | > 10 | 0.77 | 0.00391 | > 10 | 0.0207 | 0.101 | > 10 | 0.567 | –
15 | COc1ncc(-c2ccc3nccc(-c4ccnnc4)c3c2)cc1NS(=O)(=O)c1ccc(F)cc1F | – | > 1 | > 1 | 0.161 | – | – | – | 0.0227 | 0.0255 | 0.0176 | 0.0632 | 0.0522 | – | 0.0185
16 | C[C@]12CC[C@@H]3c4ccc(O)cc4C[C@@H](CCCCCCCCC[S+]([O-])CCCC(F)(F)C(F)(F)F)[C@H]3[C@@H]1CC[C@@H]2O (stereo partly specified) [Fulvestrant] | > 1 | > 1 | > 1 | > 1 | > 1 | – | > 1 | – | – | > 1 | > 1 | > 1 | > 1 | > 1
